# Test results taken from patent publication US5985916A, “Polymer-platinum compounds” (Access Pharmaceuticals, Inc., priority 1998, dated 1999).
# Legend:
# H69 cells = assay: In vitro cytotoxicity (MTT assay), H69 small cell lung carcinoma; type: cell-based; conditions: 50% decrease in cell viability
# Description: (§1) The in vitro cytotoxicity of the polyamidoamine-platinum compounds was evaluated using the MTT assay described above and in Example 5.
# (§2) The cell lines used, L132 (human embryonic lung cells), COR L23 (non-small cell lung cancer cells) and H69 (small cell lung cancer), were obtained from European Collection of Cell Cultures, Centre for Applied Biology, Microbiology and Research, Salisbury, Wiltshire UK.
# (§3) Cells were cultured using standard conditions in microtitre plates.
# [1] = tested on: L1210 intraperitoneal tumor; assay: L1210 i.p. tumor model in mice (survival and toxic deaths); type: in vivo, mice (DBA2)
# Description: The data in Table 3 is expressed as the ratio of the mean survival time of treated animals to the mean survival time of the untreated control animals×100 (T/C).
# 10^6 viable cells were administered to DBA2 mice (male 9-12 weeks, 20-30 g) i.p. on day 0. […] Animals were weighed daily and observed twice a day for signs of tumor progression and sacrificed if their body weight fell below 80% of the starting weight or if other severe toxicological problems were seen. At the end of the experiment changes in gross anatomy were noted.
# [2] = background; cited from earlier work
# COR-L23 cells = assay: In vitro cytotoxicity (MTT assay), COR-L23; type: cell-based; conditions: 50% decrease in cell viability
# Description: as §1, §2, §3
# [3] = tested on: B16 melanoma intraperitoneal tumor; assay: B16 melanoma i.p. tumor model in mice (survival, toxic deaths, body weight); type: in vivo, mice (C57BL/6J); conditions: single i.p. dose
# Excerpt: Male C57BL/6J mice were inoculated with 10^6 viable B16F10 cells intraperitoneally (i.p). […] Animals were monitored as described above.
# L132 cells = assay: In vitro cytotoxicity (MTT assay), L132; type: cell-based, human; conditions: 50% decrease in cell viability
# Description: as §1, §2, §3
smiles,measurement,setting,value
"N.N.[Cl][Pt][Cl] [Cisplatin, Cis-diamminedichloroplatinum(II)]","IC50, H-69",H69 cells,45.9 ± 20 µg/mL
same,T/C (mean survival time treated/control × 100),[1]; 2 mg/kg Pt,171
same,T/C (mean survival time treated/control × 100),[1]; 3 mg/kg Pt,64
same,"excretion, in words",[2],rapid excretion via the kidneys
same,"IC50, COR-L23",COR-L23 cells,7.38 ± 2.78 µg/mL
same,T/C,[3]; 5 mg/kg Pt,134
same,T/C,[3]; 10 mg/kg Pt,78
same,"IC50, L132",L132 cells,4.80 ± 1.29 µg/mL
